Measured values reported in article PMC8869097, “Benzothiazole Derivatives as Multifunctional Antioxidant Agents for Skin Damage: Structure–Activity Relationship of a Scaffold Bearing a Five-Membered Ring System” (Antioxidants, 2022).
Converted amounts (≈) assume the structure as drawn.

Experiments:
[1] = test system: Microsporum gypseum; assay: Antidermatophyte activity, plaque growth inhibition; type: cell-based, Microsporum gypseum CBS 130,948; conditions: Nannizzia gypsea; 100 μg/mL, SDA; read-out: % Inhibition Growth M. gypseum
Description: (§1) The dermatophytes used in this study were Epidermophyton floccosum var. floccosum (Netherlands) CBS 358.93 strain, Trichophyton tonsurans (Netherlands) CBS 483.76 strain, Trichophyton mentagrophytes (Netherlands) CBS 160.66 strain, Microsporum canis (Iran) CBS 131,110 strain, and Microsporum gypseum (Iran) CBS 130,948 strain. All dermatophytes were maintained at 4 °C as agar slants on SDA. Candida albicans (ATCC 10231) was maintained at 4 °C on SDA plate.
(§2) The in vitro antifungal activity against the five selected dermatophytes was evaluated, as previously described, using the plaque growth inhibition method. All compounds were evaluated at the final concentration of 100 µg/mL. The percentages of growth inhibition according to Equation (5) were calculated as the average of three different experiments. I = [(C − T)/C] × 100%,(5) where I is the percentage value of growth inhibition, C is the measure of the diameter of the control circular mycelial inoculum (mm) and T is the extended diameter of the treated mycelial inoculum (mm).
(§3) All synthesized benzothiazole derivatives were evaluated to evaluate their in vitro antifungal activity against the five pathogenic dermatophytes that cause the most common dermatomycoses: Microsporum gypseum, Microsporum canis, Trichophyton mentagrophytes, Trichophyton tonsurans and Epidermophyton floccosum. All compounds were tested at a concentration of 100 µg/mL in DMSO, to evaluate the ability to inhibit the growth of dermatophyte cultures in Sabouraud Dextrose Agar (SDA). Briefly, room temperature incubation was performed and dermatophyte inhibition assessed by measuring the colony diameter at each disc for 7 days. The results are shown in Table 3 and were determined as the average of three different experiments.

[2] = test system: Microsporum canis; assay: as above; type: cell-based, Microsporum canis CBS 131,110; conditions: 100 μg/mL, SDA, read-out: % Inhibition Growth M. canis
Description: as §1, §2, §3

[3] = test system: Trichophyton mentagrophytes; assay: as above; type: cell-based, Trichophyton mentagrophytes CBS 160.66; conditions: 100 μg/mL, SDA, read-out: % Inhibition Growth T. mentagrophytes
Description: as §1, §2, §3

[4] = test system: Trichophyton tonsurans; assay: as above; type: cell-based, Trichophyton tonsurans CBS 483.76; conditions: 100 μg/mL, SDA, read-out: % Inhibition Growth T. tonsurans
Description: as §1, §2, §3

[5] = test system: Epidermophyton floccosum; assay: as above; type: cell-based, Epidermophyton floccosum var. floccosum CBS 358.93; conditions: 100 μg/mL, SDA, read-out: % Inhibition Growth E. floccosum
Description: as §1, §2, §3

[6] = test system: Candida albicans (ATCC 10231); assay: Anti-Candida albicans activity, broth microdilution MIC; type: cell-based; conditions: Candida albicans, ATCC10231; 24 h of incubation
Description: as §1
The suspension of Candida albicans consists of the dispersion of an aliquot in 5 mL of sterilized water. The compounds and fluconazole, used as a positive control, were solubilized in DMSO (12.80 mg/mL) as stock solutions. Minimum inhibitory concentration (MIC) was performed by the broth microdilution method according to the approved standard M27-A3, 2008 [NCCLS] of the Clinical and Laboratory Standards Institute/National Committee for Clinical Laboratory Standards (CLSI/NCCLS), as described previously.
Candida is a strain of fungi known to transmit infections to different parts of the human body, including the skin [43], which is why the synthesized compounds have also been tested against Candida Albicans (ATCC 10231). For each of them the minimum inhibitory concentration (MIC) was determined by the broth microdilution method using RPMI 1640 + MOPS as culture medium. […] Fluconazole was used as a positive control drug. […] Similarly to the results observed on dermatophytes, therefore, the unsubstituted compounds in position 6 of benzimidazole gave activity on yeasts, except for compound 8a.

`OC(Cn1cncn1)(Cn1cncn1)c1ccc(F)cc1F` [Fluconazole, reference compound] was tested, and the inhibition at 100 µg/mL [1] was 18.2 ± 0.9%, the inhibition at 100 µg/mL [2] was 30.1 ± 0.4% and the inhibition at 100 µg/mL [3] was 3.75 ± 0.24%. For the same compound, the inhibition at 100 µg/mL [4] was 18.7 ± 0.62%, the inhibition at 100 µg/mL [5] was 0.12 ± 0.004% and the MIC [6] was 0.5 µg/mL (≈ 1.63 µM).
